Reference: the supplement of paper PMC10307832

Assays:
Test in all cases: relative viability (nuclei count vs DMSO), 5 days (fraction); higher = more cells survive
NCI-H2228 = system: NCI-H2228
In short: (§1)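 Lung cancer cell lines, seeded in 1536-well plates, were treated the following day by pin tool with a single drug or with five library-drug doses (not always all listed) in √10 steps on top of a fixed anchor-drug dose. Cells were fixed and nuclei stained in one step after 5 days, and nuclei were counted. Relative viability is the nuclei count for treated wells divided by that for vehicle wells, reported as medians of duplicate plates.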

NCI-H661 = system: NCI-H661
In short: as §1

CAL-12T = system: CAL-12T
In short: as §1

NCI-H322M = system: NCI-H322M
In short: as §1

UMC-11 = system: UMC-11
In short: as §1

A-427 = system: A-427
In short: as §1

NCI-H1355 = system: NCI-H1355
In short: as §1

NCI-H1792 = system: NCI-H1792
In short: as §1

NCI-H2087 = system: NCI-H2087
In short: as §1

NCI-H838 = system: NCI-H838
In short: as §1

NCI-H2085 = system: NCI-H2085
In short: as §1

NCI-H358 = system: NCI-H358
In short: as §1

ABC-1 = system: ABC-1
In short: as §1

NCI-H1666 = system: NCI-H1666
In short: as §1

NCI-H23 = system: NCI-H23
In short: as §1

LCLC-103H = system: LCLC-103H
In short: as §1

PC-14 = system: PC-14
In short: as §1

LK-2 = system: LK-2
In short: as §1

H3255 = system: H3255
In short: as §1

NCI-H1563 = system: NCI-H1563
In short: as §1

NCI-H1395 = system: NCI-H1395
In short: as §1

NCI-H1651 = system: NCI-H1651
In short: as §1

Structure (SMILES): COCC1(CO)C(=O)C2CCN1CC2 (stereo unspecified) [PRIMA-1MET] + Cc1nc(NC(=O)N2CCC[C@H]2C(N)=O)sc1-c1ccnc(C(C)(C)C(F)(F)F)c1 [Alpelisib] (partner 2 µM)
- relative viability (NCI-H2228; first compound 0.2 µM): 1.06
- relative viability (NCI-H2228; first compound 0.6325 µM): 0.654
- relative viability (NCI-H2228; first compound 2 µM): 0.744
- relative viability (NCI-H2228; first compound 6.325 µM): 0.534
- relative viability (NCI-H2228; first compound 20 µM): 0.0746
- relative viability (NCI-H661; first compound 0.2 µM): 0.617
- relative viability (NCI-H661; first compound 0.6325 µM): 0.581
- relative viability (NCI-H661; first compound 6.325 µM): 0.602
- relative viability (NCI-H661; first compound 20 µM): 0.297
- relative viability (CAL-12T; first compound 0.2 µM): 1.19
- relative viability (CAL-12T; first compound 0.6325 µM): 1.29
- relative viability (CAL-12T; first compound 2 µM): 1.08
- relative viability (CAL-12T; first compound 6.325 µM): 1.42
- relative viability (CAL-12T; first compound 20 µM): 0.264
- relative viability (NCI-H322M; first compound 0.2 µM): 0.942
- relative viability (NCI-H322M; first compound 6.325 µM): 0.907
- relative viability (NCI-H322M; first compound 20 µM): 0.671
- relative viability (UMC-11; first compound 0.2 µM): 1.03
- relative viability (UMC-11; first compound 0.6325 µM): 0.824
- relative viability (UMC-11; first compound 2 µM): 1.07
- relative viability (UMC-11; first compound 6.325 µM): 1.13
- relative viability (UMC-11; first compound 20 µM): 0.899
- relative viability (A-427; first compound 0.2 µM): 1.04
- relative viability (A-427; first compound 0.6325 µM): 1.05
- relative viability (A-427; first compound 2 µM): 0.9
- relative viability (A-427; first compound 6.325 µM): 1.04
- relative viability (A-427; first compound 20 µM): 1.07
- relative viability (NCI-H1355; first compound 0.2 µM): 0.953
- relative viability (NCI-H1355; first compound 0.6325 µM): 0.7
- relative viability (NCI-H1355; first compound 2 µM): 0.766
- relative viability (NCI-H1355; first compound 6.325 µM): 0.86
- relative viability (NCI-H1355; first compound 20 µM): 0.852
- relative viability (NCI-H1792; first compound 0.2 µM): 0.708
- relative viability (NCI-H1792; first compound 0.6325 µM): 0.557
- relative viability (NCI-H1792; first compound 2 µM): 0.456
- relative viability (NCI-H1792; first compound 6.325 µM): 0.754
- relative viability (NCI-H1792; first compound 20 µM): 0.687
- relative viability (NCI-H2087; first compound 0.2 µM): 1.23
- relative viability (NCI-H2087; first compound 0.6325 µM): 0.775
- relative viability (NCI-H2087; first compound 2 µM): 1.18
- relative viability (NCI-H2087; first compound 6.325 µM): 1.28
- relative viability (NCI-H2087; first compound 20 µM): 0.901
- relative viability (NCI-H838; first compound 0.2 µM): 1.26
- relative viability (NCI-H838; first compound 0.6325 µM): 0.968
- relative viability (NCI-H838; first compound 2 µM): 1.06
- relative viability (NCI-H838; first compound 6.325 µM): 1.13
- relative viability (NCI-H838; first compound 20 µM): 0.61
- relative viability (NCI-H2085; first compound 0.2 µM): 1.04
- relative viability (NCI-H2085; first compound 0.6325 µM): 0.941
- relative viability (NCI-H2085; first compound 2 µM): 0.962
- relative viability (NCI-H2085; first compound 6.325 µM): 0.554
- relative viability (NCI-H2085; first compound 20 µM): 0.35
- relative viability (NCI-H358; first compound 0.2 µM): 1.17
- relative viability (NCI-H358; first compound 0.6325 µM): 0.781
- relative viability (NCI-H358; first compound 6.325 µM): 0.908
- relative viability (NCI-H358; first compound 20 µM): 0.0962
- relative viability (ABC-1; first compound 0.2 µM): 1.07
- relative viability (ABC-1; first compound 0.6325 µM): 1.1
- relative viability (ABC-1; first compound 2 µM): 1.11
- relative viability (ABC-1; first compound 6.325 µM): 1.04
- relative viability (ABC-1; first compound 20 µM): 0.479
- relative viability (NCI-H1666; first compound 0.2 µM): 1.1
- relative viability (NCI-H1666; first compound 0.6325 µM): 0.879
- relative viability (NCI-H1666; first compound 2 µM): 0.999
- relative viability (NCI-H1666; first compound 6.325 µM): 0.834
- relative viability (NCI-H1666; first compound 20 µM): 0.123
- relative viability (NCI-H23; first compound 0.2 µM): 0.793
- relative viability (NCI-H23; first compound 0.6325 µM): 0.583
- relative viability (NCI-H23; first compound 2 µM): 0.555
- relative viability (NCI-H23; first compound 6.325 µM): 0.669
- relative viability (NCI-H23; first compound 20 µM): 0.111
- relative viability (LCLC-103H; first compound 0.2 µM): 1.1
- relative viability (LCLC-103H; first compound 0.6325 µM): 0.966
- relative viability (LCLC-103H; first compound 2 µM): 0.793
- relative viability (LCLC-103H; first compound 6.325 µM): 1.09
- relative viability (LCLC-103H; first compound 20 µM): 0.935
- relative viability (PC-14; first compound 0.2 µM): 0.839
- relative viability (PC-14; first compound 0.6325 µM): 1.03
- relative viability (PC-14; first compound 2 µM): 0.926
- relative viability (PC-14; first compound 6.325 µM): 1.07
- relative viability (PC-14; first compound 20 µM): 0.905
- relative viability (LK-2; first compound 0.2 µM): 1.22
- relative viability (LK-2; first compound 0.6325 µM): 0.868
- relative viability (LK-2; first compound 2 µM): 0.577
- relative viability (LK-2; first compound 6.325 µM): 0.626
- relative viability (LK-2; first compound 20 µM): 0.162
- relative viability (H3255; first compound 0.2 µM): 0.845
- relative viability (H3255; first compound 0.6325 µM): 0.547
- relative viability (H3255; first compound 2 µM): 0.574
- relative viability (H3255; first compound 6.325 µM): 0.793
- relative viability (H3255; first compound 20 µM): 0.666
- relative viability (NCI-H1563; first compound 0.2 µM): 0.889
- relative viability (NCI-H1563; first compound 0.6325 µM): 0.904
- relative viability (NCI-H1563; first compound 2 µM): 0.915
- relative viability (NCI-H1563; first compound 6.325 µM): 1.05
- relative viability (NCI-H1563; first compound 20 µM): 0.361
- relative viability (NCI-H1395; first compound 0.2 µM): 1.13
- relative viability (NCI-H1395; first compound 0.6325 µM): 0.737
- relative viability (NCI-H1395; first compound 2 µM): 0.977
- relative viability (NCI-H1395; first compound 6.325 µM): 0.993
- relative viability (NCI-H1395; first compound 20 µM): 0.635
- relative viability (NCI-H1651; first compound 0.2 µM): 0.904
- relative viability (NCI-H1651; first compound 0.6325 µM): 0.981
- relative viability (NCI-H1651; first compound 2 µM): 1.17
- relative viability (NCI-H1651; first compound 6.325 µM): 0.962
- relative viability (NCI-H1651; first compound 20 µM): 0.837
